From patent US20060217303A1, “Compounds and Methods for Treating Seizure Disorders” (Wisconsin Alumni Research Foundation, priority 2005, published 2006)

Assays:
[1] = Duration of anticonvulsant effect of 2DG after stopping treatment while continuing twice daily stimulation; format: in vivo; conditions: 250 mg/kg twice daily for 3 months; twice daily stimulation continued
Protocol: . […]; 5 mM solutions of oxaloacetate glycolic acid, chloroacetate and thioglycolate are equivalent to 660 mg/kg 380 mg/kg, ˜620 mg/kg and 460 mg/kg. respectively. […] A practitioner skilled in the art can adjust dosage in the range up to 500-600 mg/kg 2DG and the timing of administration to produce prolonged anticonvulsant and antiepileptic effects. Efficacious dosage amounts can be adjusted to about 14 mg/kg 2-DG in children and 40 mg/kg 2-DG in adults, using therapeutic efficacy measurements (e.g., reduction in frequency or severity of seizures) as a criterion for establishing effective dosage levels.

[2] = system: brains of animals suffering from a seizure disorder; conditions: as disclosed in co-owned U.S. Ser. No. 60/580,436; cited from earlier work
[3] = system: CA3 region of rat hippocampal slices; assay: Synchronized bursting induced by elevated [K+]o in rat hippocampal slices ex corpora (extracellular CA3 recording); format: cell-based; conditions: for synchronized bursting: 10 mM glucose; for epileptic discharges evoked in vitro (relative burst frequency) / epileptiform bursting frequency: normal glucose conditions; for epileptic discharges evoked in vitro (relative burst frequency): summary statement; for block of the increase in bursting caused by the PEPCK inhibitor 3-MCP: slices simultaneously exposed to 3-MCP, FIGS. 5A, 5B; for epileptiform bursting frequency: FIG. 6A; for burst frequency: 20 mM lactate or 20 mM pyruvate in place of 10 mM glucose in ACSF, 7.5 mM [K+]o
Protocol: The effect of various energy sources on synchronized bursting induced by elevation of [K^+]o in rat hippocampal slices ex corpora was evaluated.
In these experiments, postnatal day 28 to 40 male Sprague-Dawley rats were anesthetized and decapitated. Brains were removed and transferred to ice cold artificial cerebrospinal fluid (ACSF, comprising 124 mM NaCl, 5 mM KCl, 1.25 mM NaH2PO4, 1.5 mM MgSO4, 26 mM NaHCO3 and 2 mM CaCl2), supplemented with 10 mM glucose, which was continuously bubbled with 95% O2 and 5% CO2. Transverse hippocampal slices (˜500 microns) were prepared on a Leica VT1000s vibratome (Wetzlar Germany). The slices were allowed to recover for 1 hour at room temperature and were then transferred to an interface recording chamber at 34° C. in ACSF with 7.5 mM [K^+]o. Extracellular recordings were made from the CA3 region with an Axioclamp 2B (Axon Instruments, Forest City, Calif.) using a glass microelectrode filled with 150 mM NaCl. Data were recorded and analyzed using PClamp8 (Axon Instruments).
Synchronized bursting was induced by incubating hippocampal slices in ACSF supplemented with potassium chloride to a final concentration of 7.5 mM [K^+]o. Baseline recordings were obtained after exposure to elevated [K^+]o for 1 hour and the burst frequency had stabilized. Bursting was then recorded in ACSF containing 20 mM lactate or 20 mM pyruvate in place of the 10 mM glucose.

For `O=CC[C@@H](O)[C@H](O)[C@H](O)CO` [2DG, 2-deoxy-D-glucose], the “duration of anticonvulsant effects after stopping 2DG” value [1] is listed as “approximately 8 weeks”, the “epileptic or synchronized bursting in the brains of animals” value [2] is listed as “effective in reducing epileptic or synchronized bursting” and the synchronized bursting ([3]; 1 mM 2DG in the presence of 20 mM lactate) is listed as “reduced synchronized bursting”. The “epileptic discharges evoked in vitro (relative burst frequency)” value [3] was “effective against epileptic discharges” and the “block of the increase in bursting caused by the PEPCK inhibitor 3-MCP” value [3] was “could not be blocked”.

For `O=C(O)c1ncccc1S` [3-MCP, 3-mercaptopicolinic acid, reference compound], the “burst frequency (rate of bursting)” value ([3]; 3 mM 3-MCP in ACSF with 10 mM glucose) was 208±28 % of baseline and the rate of bursting ([3]; 3-MCP, FIGS. 5A and 5B) was “induces an increase in the rate of bursting”.

For `O=C(O)[C@@H](O)CO` [L-glycerate], the “epileptic discharges evoked in vitro (relative burst frequency)” value [3] was “effective against epileptic discharges”.

For `C=C(OP(=O)(O)O)C(=O)O` [PEP, phosphoenolpyruvate, reference compound], the “burst frequency (rate of bursting)” value ([3]; 5 mM PEP in ACSF with 10 mM glucose, reversible) was 215±32 % of baseline.

In the case of `O=C(O)CO` [glycolic acid], the “block of the increase in bursting caused by inhibition of PEPCK by 3-MCP” value ([3]; PEPCK substrate with 3-MCP, FIGS. 6B, 6C) is reported as “modestly blocks an increase in bursting”, the epileptiform bursting frequency [3] is reported as “reduce epileptiform bursting frequency” and the “epileptic discharges evoked in vitro (relative burst frequency)” value [3] is reported as “effective against epileptic discharges”.

For `O=C(O)CI` [iodoacetate, reference compound], the “epileptic or synchronized bursting in the brains of animals” value [2] is given as “effective in reducing epileptic or synchronized bursting”, the synchronized bursting ([3]; 200 μM iodoacetate, ACSF with 20 mM lactate) is given as “reduced synchronized bursting” and the “epileptic discharges evoked in vitro (relative burst frequency)” value [3] is given as “effective against epileptic discharges”. For the same compound, the “block of the increase in bursting caused by the PEPCK inhibitor 3-MCP” value [3] was “could not be blocked”.

For `CC(O)C(=O)O` (stereo not shown) [lactate, reference compound], the burst frequency ([3]; reversible) was 63±8 % of the baseline.

For `CC(=O)C(=O)O` [pyruvate, reference compound], the burst frequency ([3]; reversible) was 4±2 % of the baseline.

In the case of `O=C(O)CCl` [β-chloroacetate], the epileptiform bursting frequency [3] is reported as “reduce epileptiform bursting frequency” and the “epileptic discharges evoked in vitro (relative burst frequency)” value [3] is reported as “effective against epileptic discharges”.

In the case of thioglycolate, the epileptiform bursting frequency [3] is reported as “reduce epileptiform bursting frequency” and the “epileptic discharges evoked in vitro (relative burst frequency)” value [3] is reported as “effective against epileptic discharges”.
